Results reported in PubChem BioAssay (NCI).
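Each compound was tested at five concentrations against cells in 96-well plates for 48 hours. Definition used: TGI = concentration required for complete inhibition of growth.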

Assays:
Assay in all cases: NCI tumour cell line growth inhibition, 48 h
[1] = system: SN12C renal
[2] = system: ACHN renal
[3] = system: SF-295 CNS
[4] = system: HOP-62 NSCLC
[5] = system: UACC-257 melanoma
[6] = system: MALME-3M melanoma
[7] = system: LOX IMVI melanoma
[8] = system: NCI-H460 lung
[9] = system: SW-620 colon
[10] = system: PC-3 prostate

`Nc1nc(SCc2ccc([N+](=O)[O-])cc2)nc2c1ncn2C1OC(COP(=O)(O)O)C(O)C1O` (centres undefined) showed a TGI [1] of over 100 µM, a TGI [2] of over 100 µM and a TGI [3] of over 100 µM. It also gave a TGI [4] of over 100 µM, a TGI [5] of over 100 µM and a TGI [6] of over 100 µM. The TGI [7] was over 100 µM, the TGI [8] was over 100 µM and the TGI [9] was over 100 µM.

In the case of `COc1cc2c(cc1OC)C(C(CO)CO)N(CC(O)CCl)CC2` (centres undefined), the TGI [2] is reported as over 100 µM, the TGI [3] is reported as over 100 µM and the TGI [4] is reported as over 100 µM. The TGI [5] was over 100 µM, the TGI [6] was over 100 µM and the TGI [7] was over 100 µM. The TGI [8] was over 100 µM and the TGI [9] was over 100 µM.

`Cc1ccc(S(=O)(=O)N/N=C(\c2nc3ccc(Cl)cc3[nH]c2=O)C(O)c2cccc([N+](=O)[O-])c2)cc1` (centres undefined) was tested, and the TGI [1] was over 100 µM, the TGI [2] was over 100 µM and the TGI [3] was over 100 µM. It also gave a TGI [4] of over 100 µM, a TGI [5] of over 100 µM and a TGI [6] of over 100 µM. The TGI [7] was over 100 µM, the TGI [8] was over 100 µM and the TGI [9] was over 100 µM.

Molecule `CCOC(=O)c1cc(-c2cc(OC)c(OC)c([N+](=O)[O-])c2)c([N+](=O)[O-])n1C` has a TGI [1] of over 10 µM, a TGI [2] of over 10 µM and a TGI [3] of over 10 µM. For the same molecule, the TGI [5] was over 10 µM, the TGI [6] was over 10 µM and the TGI [8] was over 10 µM.

Work on `COc1cc(C2c3cc4c(cc3[C@@H](Nc3ccccc3)C3COC[C@H]23)OCO4)cc(OC)c1O` (some centres undefined) yielded a TGI [1] of 54.3 µM, a TGI [2] of 3.82 µM and a TGI [3] of 3.36 µM. It also gave a TGI [4] of over 100 µM, a TGI [5] of 50.4 µM and a TGI [10] of over 100 µM. For the same molecule, the TGI [8] was 5 µM and the TGI [9] was over 100 µM.

Work on `O=c1[nH]c(=O)n(C2OC(COP(=O)(O)OP(=O)(O)OC3OC(CO)C(O)C(O)C3O)C(O)C2O)cc1F` (centres undefined) yielded a TGI [1] of over 100 µM, a TGI [2] of 7.18 µM and a TGI [3] of over 100 µM. For the same molecule, the TGI [4] was 4.3 µM, the TGI [5] was 48.9 µM and the TGI [6] was 20.9 µM. The TGI [7] was 4.13 µM, the TGI [8] was 0.429 µM and the TGI [9] was over 100 µM.

Molecule `CC(NC(=O)C(C)NC(=O)C(N)CCP(C)(=O)O)C(=O)O` (centres undefined) has a TGI [1] of over 100 µM, a TGI [3] of over 100 µM and a TGI [4] of over 100 µM. The TGI [5] was over 100 µM, the TGI [6] was over 100 µM and the TGI [7] was over 100 µM. For the same molecule, the TGI [8] was over 100 µM and the TGI [9] was over 100 µM.

For `O=C1c2ccc(O)cc2C(=O)c2ccc(O)cc21`, the TGI [1] was over 100 µM, the TGI [2] was over 100 µM and the TGI [3] was over 100 µM. For the same molecule, the TGI [4] was over 100 µM, the TGI [5] was over 100 µM and the TGI [6] was over 100 µM. It also gave a TGI [7] of over 100 µM, a TGI [8] of over 100 µM and a TGI [9] of over 100 µM.

`COC(=O)C1C/C(=C/N(C)C)C(=S)N1` (centres undefined) was tested, and the TGI [2] was over 100 µM, the TGI [3] was over 100 µM and the TGI [4] was over 100 µM. For the same molecule, the TGI [5] was over 100 µM, the TGI [6] was over 100 µM and the TGI [10] was over 100 µM. For the same molecule, the TGI [8] was 35.4 µM and the TGI [9] was over 100 µM.

Work on `O=S(=O)(CCBr)CCBr` yielded a TGI [1] of 21.8 µM, a TGI [3] of 29.8 µM and a TGI [4] of 43.1 µM. It also gave a TGI [5] of 13.5 µM, a TGI [6] of 9.2 µM and a TGI [7] of 21.8 µM. It also gave a TGI [8] of 29.9 µM and a TGI [9] of 5.74 µM.

For `COc1cc2c(c(OC)c1OC)-c1ccc(SC)c(=O)cc1[C@@H](NCc1ccc(C#N)cc1)CC2`, the TGI [1] was over 100 µM, the TGI [2] was over 100 µM and the TGI [4] was over 100 µM. It also gave a TGI [6] of over 100 µM, a TGI [7] of 55.1 µM and a TGI [9] of over 100 µM.

In the case of `CCOC(=O)C1=CNC(C(=O)OCC)C1c1cccn1-c1ccc(Cl)cc1[N+](=O)[O-]` (centres undefined), the TGI [1] is reported as 37.8 µM, the TGI [2] is reported as over 100 µM and the TGI [3] is reported as 31.3 µM. The TGI [4] was 53.6 µM, the TGI [5] was 70 µM and the TGI [7] was 29.4 µM. It also gave a TGI [10] of 68.9 µM, a TGI [8] of 61.3 µM and a TGI [9] of over 100 µM.

For `CCOC(=O)c1ccc(Nc2c3c(nc4ccccc24)CCCC3)cc1`, the TGI [1] was over 100 µM, the TGI [2] was over 100 µM and the TGI [3] was over 100 µM. It also gave a TGI [4] of over 83.9 µM, a TGI [5] of over 100 µM and a TGI [7] of over 100 µM. For the same molecule, the TGI [10] was over 100 µM, the TGI [8] was over 100 µM and the TGI [9] was over 100 µM.

`Cc1nc(C)c(C(=O)NNC(N)=S)cc1C(=O)NNC(N)=S` gave a TGI [1] of over 100 µM, a TGI [2] of over 100 µM and a TGI [3] of over 100 µM. For the same molecule, the TGI [4] was over 100 µM, the TGI [5] was over 100 µM and the TGI [7] was over 100 µM. It also gave a TGI [10] of over 100 µM, a TGI [8] of over 100 µM and a TGI [9] of over 100 µM.

Work on `C[C@]12CCC(=O)C=C1CC[C@@H]1[C@@H]2[C@@H](O)C[C@@]2(C)[C@H]1CC[C@]2(O)C(=O)COC(=O)COCC(=O)O` yielded a TGI [1] of over 100 µM, a TGI [2] of over 100 µM and a TGI [3] of over 100 µM. For the same molecule, the TGI [4] was over 100 µM, the TGI [5] was over 100 µM and the TGI [6] was over 100 µM. The TGI [7] was over 100 µM, the TGI [8] was over 100 µM and the TGI [9] was over 100 µM.

In the case of `O=C1Nc2ccccc2C12CCNC2Cc1ccccc1` (centres undefined), the TGI [2] is reported as over 100 µM, the TGI [3] is reported as over 100 µM and the TGI [4] is reported as over 100 µM. The TGI [5] was over 100 µM, the TGI [6] was over 100 µM and the TGI [7] was over 100 µM. For the same molecule, the TGI [8] was over 100 µM and the TGI [9] was over 100 µM.

With `CC(C)OP(=O)(OC(C)C)/C(I)=N/Nc1ccc([N+](=O)[O-])cc1` the TGI [1] was over 100 µM, the TGI [2] was over 100 µM and the TGI [3] was over 100 µM. For the same molecule, the TGI [4] was over 100 µM, the TGI [5] was over 100 µM and the TGI [6] was over 100 µM. The TGI [8] was over 100 µM and the TGI [9] was over 100 µM.

In the case of `CN(C)c1ccc(C(=C(c2ccc(N(C)C)cc2)c2ccc(N(C)C)cc2)c2ccc(N(C)C)cc2)cc1`, the TGI [1] is reported as 35.2 µM, the TGI [2] is reported as 24.6 µM and the TGI [3] is reported as 27.8 µM. The TGI [4] was over 100 µM, the TGI [5] was 34.8 µM and the TGI [6] was 32.6 µM. It also gave a TGI [7] of 31.2 µM, a TGI [8] of 32.3 µM and a TGI [9] of 20.8 µM.
